From patent publication US11884659B1, “1-cyclopropyl-6-fluoro-4-oxo-7-(4-((5-(quinolin-2-ylmethyleneamino)-2-thioxo-1,3,4- thiadiazol-3(2H)-yl)methyl) piperazin-1-yl)-1,4-dihydroquinoline-3-carboxylic acid as an anti-inflammatory compound” (KING FAISAL UNIVERSITY, priority 2023, dated 2024)

Legend:
BSA = BSA (Bos taurus, UniProt P02769); assay: Bovine Serum Albumin Assay (BSA), inhibition of heat-induced protein denaturation; details: 20, 40, 60, 80 and 100 μg/mL; 0.4% w/v BSA, pH 6.4, 72° C. for 10 minutes; turbidity at 660 nm
Experimental: Bovine Serum Albumin Assay (BSA)
In vitro-inflammatory activities of the tested samples were determined using a modified method of the BSA assay reported by Williams et al. BSA solution (0.4%, w/v) was prepared in Tris Buffered Saline. The pH was adjusted to 6.4 with glacial acetic acid. Different dilutions of 20, 40, 60, 80, and 100 μg/mL of 1-cyclopropyl-6-fluoro-4-oxo-7-(4-((5-(quinolin-2-ylmethyleneamino)-2-thioxo-1,3,4-thiadiazol-3(2H)-yl)methyl)piperazin-1-yl)-1,4-dihydroquinoline-3-carboxylic acid (IV) the stock solutions were added to test tubes containing 1 mL of 0.4%, w/v BSA buffer solution. Both negative (solvent) and positive (aspirin) controls were assayed in a similar manner. The solutions were then heated in a water bath at 72° C. for 10 minutes and cooled for 20 minutes under laboratory conditions. The turbidity of the solutions (level of protein precipitation) was measured at 660 nm in Spectrophotometer (V-770 UV-Visible/NIR Spectrophotometer). The percentage inhibition of precipitation (protein denaturation) was determined relative to the negative control using the following equation:
[formula] [formula] Anti-Inflammatory Activity

Sequence of BSA (P02769 25-607): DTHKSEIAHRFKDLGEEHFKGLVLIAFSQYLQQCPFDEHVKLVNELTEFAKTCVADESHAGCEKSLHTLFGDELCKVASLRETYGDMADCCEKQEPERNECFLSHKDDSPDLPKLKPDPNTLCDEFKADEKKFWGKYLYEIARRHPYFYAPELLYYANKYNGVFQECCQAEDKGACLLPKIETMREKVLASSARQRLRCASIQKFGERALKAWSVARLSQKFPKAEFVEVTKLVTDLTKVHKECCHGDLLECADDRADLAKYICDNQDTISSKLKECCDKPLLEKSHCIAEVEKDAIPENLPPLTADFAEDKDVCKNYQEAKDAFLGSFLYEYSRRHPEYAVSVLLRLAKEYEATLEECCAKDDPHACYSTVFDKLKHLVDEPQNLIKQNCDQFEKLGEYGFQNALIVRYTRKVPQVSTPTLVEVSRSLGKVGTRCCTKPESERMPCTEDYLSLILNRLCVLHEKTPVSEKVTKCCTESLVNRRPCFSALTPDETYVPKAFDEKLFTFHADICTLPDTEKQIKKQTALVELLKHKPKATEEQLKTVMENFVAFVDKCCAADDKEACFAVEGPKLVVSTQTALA

in vitro anti-inflammatory activity (inhibition of protein denaturation) (BSA): considerable anti-inflammatory effect | melting point: 232 to 235 °C
SMILES: O=C(O)c1cn(C2CC2)c2cc(N3CCN(Cn4nc(/N=C/c5ccc6ccccc6n5)sc4=S)CC3)c(F)cc2c1=O [IV, 1-cyclopropyl-6-fluoro-4-oxo-7-(4-((5-(quinolin-2-ylmethyleneamino)-2-thioxo-1,3,4-thiadiazol-3(2H)-yl)methyl)piperazin-1-yl)-1,4-dihydroquinoline-3-carboxylic acid]
